From patent US20070099877A1, “N-aryl-thienopyrimidin-4-amines and analogs as activators of caspases and inducers of apoptosis and the use thereof” (Cytovia, Inc., priority 2005, published 2007) come the findings set out here.

Common to all, as to assay type: cell-based
Assay [1] relates to multi-drug resistant (MDR) human sarcoma cell line MES-SA/ADR. In words: Inhibition of cell proliferation (GI50) in MES-SA/ADR cells. The following applies: Table IV, read-out: GI50 in Multi-Cancer Cells MES-SA/ADR. As to the method: (§1) Human breast cancer cell lines T-47D, MX-1 and MDAMB435, human colon cancer cell line HT29, and human lung cancer cell line H1299 were grown and harvested as in Example 75. An aliquot of […] of cells (4.4×10^4 cells/mL) was added to a well of a 96-well microtiter plate containing 5 μL of a 10% DMSO in RPMI-1640 media solution containing 10 nM to 100 μM of N-(2,5-dimethoxyphenyl)-2-methylthieno[3,2-d]pyrimidin-4-amine (1 nM to 10 μM final). An aliquot of 45 μL of cells was added to a well of a 96-well microtiter plate containing 5 μL of a 10% DMSO in RPMI-1640 media solution without compound as the control sample for maximal cell proliferation (Lmax). The samples were mixed by agitation and then incubated at 37° C. for 48 h in a 5% CO2-95% humidity incubator. After incubation, the samples were removed from the incubator and 25 μL of CellTiter-Glo™ reagent (Promega) was added. The samples were mixed by agitation and incubated at room temperature for 10-15 min. Plates were then read using a luminescent plate reader (Model SPECTRAfluor Plus, Tecan) to give Ltest values.
(§2) Baseline for GI50 (dose for 50% inhibition of cell proliferation) of initial cell numbers was determined by adding an aliquot of 45 μL of cells or 45 μL of media, respectively, to wells of a 96-well microtiter plate containing 5 μL of a 10% DMSO in RPMI-1640 media solution. The samples were mixed by agitation and then incubated at 37° C. for 0.5 h in a 5% CO2-95% humidity incubator. After incubation, the samples were removed from the incubator and 25 μL of CellTiter-Glo™ reagent (Promega) was added. The samples were mixed by agitation and incubated at 37° C. for 10-15 min at room temperature in a 5% CO2-95% humidity incubator. Fluorescence was read as above, (LStart) defining luminescence for initial cell number used as baseline in GI50 determinations.
(§3) GI50 (dose for 50% inhibition of cell proliferation) is the concentration where [(LTest−Lstart)/(LMax−Lstart)]=0.5.
(§4) Several compounds were tested in multi cancer cell lines, including human breast cancer cell lines T-47D, MX-1, SKBR3 and MDAMB435, human hepatocellular carcinoma cell line SNU398, human colon carcinoma cell line HCT116, human sarcoma cell line MES-SA and multi-drug resistant (MDR) human sarcoma cell line MES-SA/ADR, murine leukemia cell line P388 and multi-drug resistant (MDR) murine leukemia cell line P388ADR, and the data are summarized in Table IV.

Assay [2] has as its system murine leukemia cell line P388. In words: Inhibition of cell proliferation (GI50) in P388 cells. The conditions noted are these: Mus musculus, Table IV, read-out: GI50 in Multi-Cancer Cells P388. How it is done: as §1, §2, §3, §4
Assay [3] deals with human breast cancer cell line T-47D. Put plainly: Caspase cascade activation (DEVD-R110 fluorogenic substrate) in T-47D cells. The following applies: Homo sapiens, T47D. The procedure, abridged: (§5)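 Cells were exposed to compound at 0.016 to 10 μM final for 24 h or 48 h at 37 °C. They were then lysed with 14 μM N-(Ac-DEVD)-N′-ethoxycarbonyl-R110 in lysolecithin/DTT/PIPES buffer pH 7.2 for 3 h at room temperature (ex 485/em 530 nm). EC50 came from a sigmoidal fit of net RFU relative to untreated control.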

The test system of assay [4] is multi-drug resistant (MDR) murine leukemia cell line P388ADR. Put plainly: Inhibition of cell proliferation (GI50) in P388/ADR cells. The following applies: Mus musculus, Table IV, read-out: GI50 in Multi-Cancer Cells P388/ADR. As to the method:
as §1, §2, §3, §4

Assay [5] relates to human breast cancer cell line MDAMB435. In words: Inhibition of cell proliferation (GI50) in MDAMB435 cells. As to the method: as §1, §2, §3
Assay [6] has as its system human breast cancer cell line T-47D. Put plainly: Inhibition of cell proliferation (GI50, CellTiter-Glo) in T-47D cells. The conditions noted are these: T47D cells. How it is done:
as §1, §2, §3

Assay [7] relates to human colon carcinoma cell line HCT116. In words: Inhibition of cell proliferation (GI50) in HCT116 cells. The following applies: HCT-116, Table IV, read-out: GI50 in Multi-Cancer Cells HCT116. As to the method: as §1, §2, §3, §4
Assay [8] concerns human breast cancer cell line MX-1. Put plainly: Inhibition of cell proliferation (GI50) in MX-1 cells. The conditions noted are these: MX1 cells. How it is done: as §1, §2, §3
Assay [9] concerns human hepatocellular carcinoma cell line SNU398. Put plainly: Caspase cascade activation in SNU398 cells. The following applies: Homo sapiens, SNU-398, 48 h, read-out: Caspase activation Potency EC50 SNU398 (48 h). The procedure, abridged:
as §5

Assay [10] relates to human colon carcinoma cell line HCT116. Put plainly: Caspase cascade activation in HCT116 cells. The following applies: Homo sapiens, HCT-116, 48 h, read-out: Caspase activation Potency EC50 HCT116 (48 h). The procedure, abridged:
as §5

The subject of assay [11] is human hepatocellular carcinoma cell line SNU398. In words: Inhibition of cell proliferation (GI50) in SNU398 cells. The conditions noted are these: SNU-398, Table IV, read-out: GI50 in Multi-Cancer Cells SNU398. As to the method:
as §1, §2, §3, §4

The test system of assay [12] is human breast cancer cell line SKBR3. In words: Inhibition of cell proliferation (GI50) in SKBR3 cells. The conditions noted are these: SK-BR-3, Table IV, read-out: GI50 in Multi-Cancer Cells SKBR3. As to the method:
as §1, §2, §3, §4

For assay [13], the system named is human sarcoma cell line MES-SA. In words: Inhibition of cell proliferation (GI50) in MES-SA cells. The conditions noted are these: Table IV, read-out: GI50 in Multi-Cancer Cells MES-SA. How it is done:
as §1, §2, §3, §4

Assay [14] relates to human colon cancer cell line HT29. Put plainly: Inhibition of cell proliferation (GI50) in HT29 cells. The conditions noted are these: HT-29, Table III, 48 h. As to the method:
as §1, §2, §3

Assay [15] concerns human lung cancer cell line H1299. In words: Caspase cascade activation in H1299 cells. The following applies: NCI-H1299, 24 h, read-out: Caspase activation Potency EC50 H1299 (24 h). In a few lines:
as §5

Assay [16] has the same test system. In words: Inhibition of cell proliferation (GI50) in H1299 cells. The conditions noted are these: NCI-H1299, Table III, 48 h. How it is done: as §1, §2, §3
Setting [17] is: 48 h, T-47D cells, 48 h, read-out: Caspase activation Potency EC50 T-47D (48 h).
The mark [18] stands for this setting: MDA-MB-435, Table IV, read-out: GI50 in Multi-Cancer Cells MDAMB435.
Setting [19] is: Table IV, read-out: GI50 in Multi-Cancer Cells T47D.
The mark [20] stands for this setting: Table IV, read-out: GI50 in Multi-Cancer Cells MX1.
Setting [21] is: 24 h, T47D cells, 24 h, read-out: Caspase activation Potency EC50 T47D (24 h).
[22] abbreviates: MDA-MB-435, Table III, 48 h, read-out: GI50 in Cancer Cells MDAMB435.
[23] abbreviates: Table III, 48 h, read-out: GI50 in Cancer Cells T47D.
The mark [24] stands for this setting: Table III, 48 h, read-out: GI50 in Cancer Cells MX1.

Structures can show the parent of a compound that is named as a salt. Where two headings read alike, the source gives them in different places.

Take `COc1cc(Nc2ncnc3ccsc23)cc(N(C)C)c1` [Example 69, N-(3-Dimethylamino-5-methoxyphenyl)thieno[3,2-d]pyrimidin-4-amine]: the GI50 in assay [1] stood at 520 nM; in assay [2], 381 nM; in assay [4] it was 249 nM; in assay [5] (setting [18]), 41 nM; in [6] (setting [19]), 133 nM; in assay [7], 300 nM. Moreover, the GI50 in assay [8] (setting [20]) was found to be 9850 nM; in assay [11], 276 nM; in [12] it was 100 nM; in assay [13], 600 nM. Also, the EC50 (commonly the concentration giving half of the maximal effect) in assay [3] (setting [17]) came out at 191 nM; in [9] it was 251 nM; in [10], 323 nM.

`COc1ccc(OC)c(Nc2ncnc3sccc23)c1` [Example 5, N-(2,5-Dimethoxyphenyl)thieno[2,3-d]pyrimidin-4-amine hydrochloride]: the GI50 in [14] is above 10000 nM; in assay [5] (setting [22]), above 10000 nM; in assay [6] (setting [23]) it was 200 nM; in assay [8] (setting [24]), 300 nM; in [16], above 10000 nM. In addition, the half-maximal effective concentration (EC50) in assay [3] (setting [21]) is 147 nM; in assay [3] (setting [17]), 296 nM; in assay [15], above 10000 nM; in assay [9], above 10000 nM; in assay [10], above 10000 nM.

In the case of `COc1ccc(OC)c(Nc2ncnc3scc(C)c23)c1` [Example 6, N-(2,5-Dimethoxyphenyl)-5-methylthieno[2,3-d]pyrimidin-4-amine hydrochloride], the GI50 in [14], in assay [5] (setting [22]), in assay [6] (setting [23]), in [8] (setting [24]) and in assay [16] was above 10000 nM each time. The concentration giving a half-maximal response (EC50) in assay [3] (setting [21]), in [3] (setting [17]), in [15], in assay [9] and in [10] was above 10000 nM each time.

Turning to `COc1cc(Nc2nc(C)nc3ccsc23)cc(OC)c1` [Example 54, N-(3,5-Dimethoxyphenyl)-2-methylthieno[3,2-d]pyrimidin-4-amine], the GI50 worked out at 2000 nM in assay [1]; 1050 nM in assay [2]; 1100 nM in [4]; 121 nM in assay [5] (setting [18]); 40 nM in [6] (setting [19]); 6580 nM in assay [7]. For the same compound, the results for the GI50 in assay [8] (setting [20]), in [11] and in assay [13] were 100 nM, 1070 nM and 788 nM, respectively. Also, the EC50 in [3] (setting [21]) is 27 nM; in assay [3] (setting [17]), 30 nM; in assay [9], 256 nM; in [10] it was 61 nM.

As to `COc1cc(N=[N+]=[N-])cc(Nc2ncnc3ccsc23)c1` [Example 71, N-(3-Azido-5-methoxyphenyl)thieno[3,2-d]pyrimidin-4-amine], the GI50 in [1] is 796 nM; in assay [2], 218 nM; in assay [4], 157 nM; in assay [5] (setting [18]), 92 nM; in assay [6] (setting [19]) it was 208 nM; in assay [7], 300 nM. Further, the GI50 in [8] (setting [20]) is 1670 nM; in assay [11], 305 nM; in assay [12] it was 200 nM; in assay [13], 385 nM. Besides, the EC50 in assay [3] (setting [17]) amounted to 209 nM; in [9], 262 nM; in assay [10], 144 nM.

For `COc1cc(Nc2ncnc3ccsc23)cc(-n2cnnn2)c1` [Example 61, N-(3-Methoxy-5-(1H-tetrazol-1-yl)phenyl)thieno[3,2-d]pyrimidin-4-amine], the GI50 was found to be 767 nM in [1]; 280 nM in assay [2]; 199 nM in assay [4]; 61 nM in assay [5] (setting [18]); 398 nM in [6] (setting [19]); 400 nM in assay [7]. The GI50 in [8] (setting [20]) was 791 nM; in assay [11], 299 nM; in [12], 600 nM; in assay [13], 836 nM. For the same compound, the half-maximal effective concentration (EC50) in assay [3] (setting [21]) amounted to 355 nM; in assay [3] (setting [17]), 287 nM; in assay [9], 138 nM; in assay [10] it was 291 nM.
